“Also recorded” adds a separate entry of the source.
What was measured:
Type in all cases: cell-based, human
[1] = test system: ERKs (Erk1 and Erk2) in hES cells; test: ERK phosphorylation Western blot in hES cells (Example 1)
Method: RT-PCR for LPL receptors (A, B), PDGFR-[…] (alpha) and PDGFR-[…] (beta) (C), SPK-1 and SPK-2 (D), with (+) or without (−) RT. Immunostaining of hES cells with Hoechst 33342 (E, H), PDGFR-[…] (F) or PDGFR-[…] (I) and GCTM-2 (G, J) antibodies. S1P, LPA and PDGF stimulate ERKs phosphorylation in hES cells. (K) Western blots experiment were performed using protein lysate from hES cells. Cells were pre-treated or not with U0126 (30 μM, 1 hr) and incubated for 5 min in the absence (C, control) or presence of S1P (S, 10 μM), LPA (L, […]) or PDGF (P, 20 ng/ml). The phosphorylation of Erk1 and Erk2 (P-Erk1 and P-Erk2) was assessed by immunoblotting with a polyclonal anti-active MAP kinase as described in Materials and Methods. After a stripping procedure, the same blots were reprobed with a monoclonal anti-MAP kinase, allowed the detection of Erk1 and Erk2.
hES-3 cells plated without MEF for 24 hrs were depleted of serum for a further 18 hrs. Cells pre-treated or not with U0126 (Sigma, 30 μM, 1 hr), were incubated in the presence of the different agents for 5 min and were lysed by removal of the supernatants and addition of a reducing loading buffer containing 1 mM sodium orthovanadate (Sigma). Protein lysates (approx. 80 μg) were separated by SDS-polyacrylamide gel electrophoresis (10% polyacrylamide, w/v), transferred to nitrocellulose (Hybond-nitrocellulose, Amersham) and immunoblotting was carried out using rabbit polyclonal anti-active mitogen-activated protein (MAPK) antibodies raised against a dually phosphorylated MAPK peptide (Promega, Madison, Wis., USA). Peroxidase-coupled secondary antibody (Dako) was detected by exposure of autoradiographic films in the presence of a chemiluminescent detection reagent (ECL, Amersham). Stripping of antibodies was achieved and membranes were then reprobed with rabbit polyclonal anti-ERK1/2 antibodies (Promega), and then with peroxidase-coupled secondary antibodies (Dako). Membranes probed with either rabbit polyclonal anti-active p38 (Promega) or rabbit polyclonal anti-active JNK (Promega) antibodies were also performed, using the same procedure as described above.

hES cells [2] = test: ELISA-based GCTM-2 quantification in hES cells (Example 2)
Method: (§1) hES-3 cells were cultured as previously described^1. The serum-free culture medium consisted of DMEM (without sodium pyruvate, glucose 4500 mg/l, Invitrogen, Mount Waverley, VIC, Australia) supplemented with insulin/transferrin/selenium 1%, β-mercaptoethanol 0.1 mM, NEAA 1%, glutamine 2 mM, Hepes 25 mM, penicillin 50 U/ml and streptomycin […] (all from Invitrogen). Media was changed every 2 days and cells were passaged every week S1P and dihydro-S1P were obtained from Biomol (Plymouth Meeting, Pa., USA). LPA was obtained from Sigma (Castle Hill, NSW, Australia). Extemporaneous dilutions of all lipids were made in water containing 0.1% fatty acid-free bovine serum albumin (BSA) (Sigma). S1P and dihydro-S1P were used at 10 mM. Human PDGF-AB, PDGF-AA, PDGF-BB were from Prepro Tech Inc. (Rocky Hill, N.J., USA) and were used at 20 ng/ml.
Cells were fixed in 100% ethanol and immunostained with GCTM-2 followed by alkaline phosphatase-coupled secondary antibodies (Dako). Alkaline phosphatase activity was detected by adding a solution of 4-nitrophenyl phosphate (Roche), and the concentration of the reaction product was determined by reading the optical density (OD) at 405 nm. In order to validate the technique as an accurate indicator of the proportion of GCTM-2 positive cells, standard curves were carried out with the embryonal carcinoma cell line GCT27C4, known to express GCTM-2^20.

[3] = test system: ERKs (Erk1 and Erk2) in hES cells; test: ERK phosphorylation Western blot in hES cells (Example 5); conditions: U0126 30 μM, 1 hr pre-treatment
Method: Western blots experiments were performed using protein lysate from hES cells. (A) Cells were pre-treated or not with U0126 (30 μM, 1 hr) and incubated for 5 min in the absence (C, control) or presence of S1P (10 μM). (B) Cells were incubated for different time periods in the absence or presence of S1P (10 μM). (C) Cells were incubated for 5 min with various concentrations of S1P. The phosphorylation of Erk1 and Erk2 (P-Erk1 and P-Erk2) was assessed by immunoblotting with a polyclonal anti-active MAP kinase as described in Materials and Methods. After a stripping procedure, the same blots reprobed with a monoclonal anti-MAP kinase, allowed the detection of Erk1 and Erk2.
For immunoblot analysis, cells were transferred into 24 well plates (8 colonies per well) without MEFs, and 24 hr later, were grown in the absence of serum for 18 hrs.
In some experiments, cells were pre-treated for 1 hr with U0126 (30 μM) or for 18 hrs with PTX (100 μg/ml).
hES3 cells were lysed following removal of the supernatants by addition of a reducing loading buffer (2% SDS, 62.5 mM Tris pH 6.8, 0.1 M DTT, 0.01% bromophenol blue) containing 1 mM sodium orthovanadate. Samples were boiled for 10 min and centrifuged at 13000 g for 15 min, and protein lysates (approx. 80 μg) were separated by SDS-polyacrylamide gel electrophoresis (10% polyacrylamide, w/v). Proteins were transferred to nitrocellulose (Hybond-ECL, Amersham) and immunoblotting was carried out with rabbit polyclonal anti-active mitogen-activated protein (MAPK) antibodies raised against a dually phosphorylated MAPK peptide (Promega, Madison, Wis., USA). Peroxidase-coupled secondary antibody (Dako) was detected by exposure of autoradiographic films in the presence of a chemiluminescent detection reagent (ECL, Amersham). Stripping of antibodies was achieved by incubating the membrane during 30 min at 50° C. in a buffer containing 100 mM mercaptoethanol, 2% SDS, 62.5 mM Tris-HCl pH 6.7. The membrane was then reprobing with rabbit polyclonal anti-ERK1/2 antibodies (Promega), and then with peroxidase-coupled secondary antibodies (Dako).

hES cells [4] = test: Spontaneous differentiation of hES colonies on MEF in serum-free medium, morphology (Example 1); conditions: 8 days serum-free on MEF; S1P 10 μM, PDGF 20 ng/ml, LPA up to 50 μM
Method: (A) hES cells grown with MEF, before the depletion of serum from the medium. (B, C, D, E) hES cells grown without serum after 8 days, in the absence (B) or in the presence of S1P (10 μM) (C), PDGF (20 ng/ml) (D), S1P (10 μM) plus PDGF (20 ng/ml) (E). (F) hES cells grown without serum, in the presence or in the absence (control) of S1P (10 μM), PDGF (20 ng/ml), S1P (10 μM) plus PDGF (20 ng/ml). In A-E, data are representative of at least 3 independent experiments. In F, data expressed as percentages of alkaline phosphatase activity in absence of serum for eight days (% of control), are the means±SEM of at least 2 independent experiments, each run in triplicate.
hES-3 cells were cultured as previously described^1. The serum-free culture medium consisted of DMEM (without sodium pyruvate, glucose 4500 mg/l, Invitrogen, Mount Waverley, VIC, Australia) supplemented with insulin/transferrin/selenium 1%, β-mercaptoethanol 0.1 mM, NEAA 1%, glutamine 2 mM, Hepes 25 mM, penicillin 50 U/ml and streptomycin […] (all from Invitrogen). Medium was changed every 2 days and cells were passaged every week. S1P and dihydro-S1P were obtained from Biomol (Plymouth Meeting, Pa., USA) and were dissolved in methanol. LPA was obtained from Sigma (Castle Hill, NSW, Australia) and was dissolved in ethanol. Extemporaneous dilutions of all lipids were made in water containing 0.1% fatty acid-free bovine serum albumin (BSA) (Sigma). Human PDGF-AB, PDGF-AA, PDGF-BB were from PreproTech Inc. (Rocky Hill, N.J., USA).

hES cells [5] = test: Spontaneous differentiation of hES colonies on MEF in serum-free medium, morphology (Example 2); conditions: 2 weeks serum-free on MEF; S1P 10 μM, PDGF-AB 20 ng/ml, LPA up to 50 μM
Method: as §1, with “S1P and dihydro-S1P were used at 10 mM.” left out

hES cells [6] = test: Direct observation of hES colonies in serum-depleted medium (Example 4)
Method: (A) hES cells grown with feeder, before the depletion in serum. (B) hES cells grown without serum after 8 days (B, C) and 12 days (D, E), in absence (B, D) or presence of S1P (C, E, 10 μM).
For direct observation, hES-3 cells were coated into 12-well plates (3 colonies per well), with or without mouse embryonic feeders (MEFs). The day following the plating, cells were incubated with the different agents in serum free medium containing insulin, transferring and selenium. Media was changed the 2nd day and then every 2 days.

N#CC(=C(/N)Sc1ccccc1N)/C(C#N)=C(\N)Sc1ccccc1N [U0126]
effect on S1P-, LPA- and PDGF-stimulated phosphorylation of ERKs ([1]; U0126 30 μM, 1 hr pre-treatment): totally inhibited
effect on PDGF and S1P action on GCTM2 expression (hES cells [2]; U0126 10 mM for 7 days): totally inhibited
effect on S1P-stimulated phosphorylation of ERKs [3]: totally inhibited

CCCCCCCCCCCCC/C=C/[C@@H](O)[C@H](CO)N(C)C [DMS, dimethylsphingosine]
effect on PDGF and S1P action (GCTM2) (hES cells [2]; DMS 3 µM for 7 days): inhibited the effect of PDGF and S1P

lysophosphatidic acid [LPA]
phosphorylation of ERKs ([1]; hES cells, 5 min, S1P 10 μM, LPA 50 M, PDGF 20 ng/ml): stimulated the phosphorylation of ERKs
colony growth/morphology (spontaneous differentiation) (hES cells [4]): did not have an obvious effect on growth of the colonies
size or morphology of hES cell colonies (spontaneous differentiation) (hES cells [5]): no obvious effect on size or morphology
growth/differentiation of hES colonies on MEFs (hES cells [6]; S1P 10 μM 8 days, LPA up to 50 μM 12 days): did not seem to affect the growth of the colonies; also recorded: inactive
effect on cell differentiation, hES cells grown without MEFs (hES cells [6]; without MEFs, n=3): lack of effect

— US7604990B2, “Methods of regulating differentiation in stem cells” (ES Cell International Pte Ltd., priority 2002, dated 2009)
